Measurements from patent publication US20240368135A1 (VERTEX PHARMACEUTICALS INCORPORATED, priority 2021, published 2024).

These molecules were tested against human NaV 1.8 (Homo sapiens, UniProt Q9Y5Y9) (assay: E-VIPR assay detecting and measuring NaV inhibition properties). Conditions: HEK cells expressing truncated human NaV 1.8; no human serum; read-out: IC50 in the E-VIPR Assay.
Assay type: cell-based
Summary of the method: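 HEK cells expressing truncated, fully active human NaV1.8, with KIR2.1 BacMam co-transduction, were loaded with CC2-DMPE/DiSBAC6(3) voltage-sensing dyes for 20 min at room temperature. Compounds were tested in 11-point 3-fold dilutions (300 nM top final), optionally with 25% human serum, under electrical stimulation with FRET read-out.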

Chain of human NaV 1.8 (Q9Y5Y9 126-399 limits assumed): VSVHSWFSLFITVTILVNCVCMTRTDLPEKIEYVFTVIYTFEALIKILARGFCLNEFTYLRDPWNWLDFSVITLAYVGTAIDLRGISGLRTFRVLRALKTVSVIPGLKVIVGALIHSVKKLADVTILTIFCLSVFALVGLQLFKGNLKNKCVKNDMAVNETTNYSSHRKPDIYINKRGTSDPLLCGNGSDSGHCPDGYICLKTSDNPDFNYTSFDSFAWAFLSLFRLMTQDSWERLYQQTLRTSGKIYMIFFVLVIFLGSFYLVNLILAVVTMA
Chain of human NaV 1.8 (Q9Y5Y9 660-890 limits assumed): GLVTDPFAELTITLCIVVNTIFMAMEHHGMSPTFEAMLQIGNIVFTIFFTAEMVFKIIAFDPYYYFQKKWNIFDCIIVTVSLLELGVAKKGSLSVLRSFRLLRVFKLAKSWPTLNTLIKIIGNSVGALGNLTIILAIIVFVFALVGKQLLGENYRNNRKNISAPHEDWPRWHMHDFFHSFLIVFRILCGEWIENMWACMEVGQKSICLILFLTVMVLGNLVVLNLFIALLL
Chain of human NaV 1.8 (Q9Y5Y9 1148-1722 limits assumed): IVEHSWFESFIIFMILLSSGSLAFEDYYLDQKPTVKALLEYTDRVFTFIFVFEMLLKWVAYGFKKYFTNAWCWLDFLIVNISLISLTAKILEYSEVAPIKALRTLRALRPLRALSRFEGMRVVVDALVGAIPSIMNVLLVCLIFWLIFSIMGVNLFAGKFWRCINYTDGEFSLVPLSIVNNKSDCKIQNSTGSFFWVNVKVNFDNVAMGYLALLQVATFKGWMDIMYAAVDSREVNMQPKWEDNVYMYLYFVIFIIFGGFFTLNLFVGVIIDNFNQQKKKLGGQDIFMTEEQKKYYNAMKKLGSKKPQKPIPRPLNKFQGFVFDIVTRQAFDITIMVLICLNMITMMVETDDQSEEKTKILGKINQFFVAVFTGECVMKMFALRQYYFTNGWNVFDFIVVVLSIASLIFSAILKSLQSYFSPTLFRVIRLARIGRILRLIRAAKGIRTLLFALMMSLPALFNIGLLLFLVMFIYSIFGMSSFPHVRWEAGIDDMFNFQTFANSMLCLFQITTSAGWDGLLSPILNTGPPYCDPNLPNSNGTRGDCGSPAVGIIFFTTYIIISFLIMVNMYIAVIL

Row | SMILES | IC50
1 | COc1ncc(NC(=O)[C@@H]2O[C@@](C)(C(F)(F)F)[C@@H](C)[C@H]2c2ccc(F)c(F)c2OCCO)cn1 [Compound 550, (2R,3S,4S,5R)-3-(3,4-difluoro-2-(2-hydroxyethoxy)phenyl)-N-(2-methoxypyrimidin-5-yl)-4,5-dimethyl-5-(trifluoromethyl)tetrahydrofuran-2-carboxamide] | 100 to 1000 nM
2 | Cc1ncc(C2CCOC2)cc1NC(=O)[C@@H]1O[C@@](C)(C(F)(F)F)[C@@H](C)[C@H]1c1ccc(F)c(F)c1OCCO (stereo partly drawn) [Compound 551, (2R,3S,4S,5R)-3-(3,4-difluoro-2-(2-hydroxyethoxy)phenyl)-4,5-dimethyl-N-(2-methyl-5-(tetrahydrofuran-3-yl)pyridin-3-yl)-5-(trifluoromethyl)tetrahydrofuran-2-carboxamide] | ≥ 1000 nM
3 | COCCn1ccc(NC(=O)[C@@H]2O[C@@](C)(C(F)(F)F)[C@@H](C)[C@H]2c2ccc(F)c(F)c2OCCO)n1 [Compound 552, (2R,3S,4S,5R)-3-(3,4-difluoro-2-(2-hydroxyethoxy)phenyl)-N-(1-(2-methoxyethyl)-1H-pyrazol-3-yl)-4,5-dimethyl-5-(trifluoromethyl)tetrahydrofuran-2-carboxamide] | ≥ 1000 nM
4 | COCn1cnc(NC(=O)[C@@H]2O[C@@](C)(C(F)(F)F)[C@@H](C)[C@H]2c2ccc(F)c(F)c2OCCO)n1 [Compound 553, (2R,3S,4S,5R)-3-(3,4-difluoro-2-(2-hydroxyethoxy)phenyl)-N-(1-(methoxymethyl)-1H-1,2,4-triazol-3-yl)-4,5-dimethyl-5-(trifluoromethyl)tetrahydrofuran-2-carboxamide] | ≥ 1000 nM
5 | CC1C(c2ccc(F)c(F)c2OCCO)C(C(=O)Nc2ncn(C3CC(F)C3)n2)OC1(C)C(F)(F)F [Compound 554, (2R,3S,4S,5R)-3-(3,4-difluoro-2-(2-hydroxyethoxy)phenyl)-N-(1-((15,3S)-3-fluorocyclobutyl)-1H-1,2,4-triazol-3-yl)-4,5-dimethyl-5-(trifluoromethyl)tetrahydrofuran-2-carboxamide] | ≥ 1000 nM
6 | C[C@H]1[C@@H](c2ccc(F)c(F)c2OCCO)[C@H](C(=O)Nc2cncs2)O[C@@]1(C)C(F)(F)F [Compound 555, (2R,3S,4S,5R)-3-(3,4-difluoro-2-(2-hydroxyethoxy)phenyl)-4,5-dimethyl-N-(thiazol-5-yl)-5-(trifluoromethyl)tetrahydrofuran-2-carboxamide] | 10 to 100 nM
7 | C[C@H]1[C@@H](c2ccc(F)c(F)c2OCCO)[C@H](C(=O)Nc2ccon2)O[C@@]1(C)C(F)(F)F [Compound 556, (2R,3S,4S,5R)-3-(3,4-difluoro-2-(2-hydroxyethoxy)phenyl)-N-(isoxazol-3-yl)-4,5-dimethyl-5-(trifluoromethyl)tetrahydrofuran-2-carboxamide] | 100 to 1000 nM
8 | Cc1nn(C)cc1NC(=O)[C@@H]1O[C@@](C)(C(F)(F)F)[C@@H](C)[C@H]1c1ccc(F)c(F)c1OCCO [Compound 557, (2R,3S,4S,5R)-3-(3,4-difluoro-2-(2-hydroxyethoxy)phenyl)-N-(1,3-dimethyl-1H-pyrazol-4-yl)-4,5-dimethyl-5-(trifluoromethyl)tetrahydrofuran-2-carboxamide] | 10 to 100 nM
9 | Cc1nocc1NC(=O)[C@@H]1O[C@@](C)(C(F)(F)F)[C@@H](C)[C@H]1c1ccc(F)c(F)c1OCCO [Compound 558, (2R,3S,4S,5R)-3-(3,4-difluoro-2-(2-hydroxyethoxy)phenyl)-4,5-dimethyl-N-(3-methylisoxazol-4-yl)-5-(trifluoromethyl)tetrahydrofuran-2-carboxamide] | < 10 nM
10 | Cc1oncc1NC(=O)[C@@H]1O[C@@](C)(C(F)(F)F)[C@@H](C)[C@H]1c1ccc(F)c(F)c1OCCO [Compound 559, (2R,3S,4S,5R)-3-(3,4-difluoro-2-(2-hydroxyethoxy)phenyl)-4,5-dimethyl-N-(5-methylisoxazol-4-yl)-5-(trifluoromethyl)tetrahydrofuran-2-carboxamide] | 10 to 100 nM
11 | Cc1cc(NC(=O)[C@@H]2O[C@@](C)(C(F)(F)F)[C@@H](C)[C@H]2c2ccc(F)c(F)c2OCCO)ccn1 [Compound 560, (2R,3S,4S,5R)-3-(3,4-difluoro-2-(2-hydroxyethoxy)phenyl)-4,5-dimethyl-N-(2-methylpyridin-4-yl)-5-(trifluoromethyl)tetrahydrofuran-2-carboxamide] | 10 to 100 nM
12 | C[C@H]1[C@@H](c2ccc(F)c(F)c2OCCO)[C@H](C(=O)Nc2ncn(C3CCOC3)n2)O[C@@]1(C)C(F)(F)F (stereo partly drawn) [Compound 561, (2R,3S,4S,5R)-3-(3,4-difluoro-2-(2-hydroxyethoxy)phenyl)-4,5-dimethyl-N-(1-(tetrahydrofuran-3-yl)-1H-1,2,4-triazol-3-yl)-5-(trifluoromethyl)tetrahydrofuran-2-carboxamide] | ≥ 1000 nM
13 | COCc1cc(C)nc(NC(=O)[C@@H]2O[C@@](C)(C(F)(F)F)[C@@H](C)[C@H]2c2ccc(F)c(F)c2OCCO)n1 [Compound 562, (2R,3S,4S,5R)-3-(3,4-difluoro-2-(2-hydroxyethoxy)phenyl)-N-(4-(methoxymethyl)-6-methylpyrimidin-2-yl)-4,5-dimethyl-5-(trifluoromethyl)tetrahydrofuran-2-carboxamide] | ≥ 1000 nM
14 | C[C@H]1[C@@H](c2ccc(F)c(F)c2OCCO)[C@H](C(=O)Nc2ncnc3c2cnn3C(C)(C)C)O[C@@]1(C)C(F)(F)F [Compound 563, (2R,3S,4S,5R)-N-(1-(tert-butyl)-1H-pyrazolo[3,4-d]pyrimidin-4-yl)-3-(3,4-difluoro-2-(2-hydroxyethoxy)phenyl)-4,5-dimethyl-5-(trifluoromethyl)tetrahydrofuran-2-carboxamide] | ≥ 1000 nM
15 | COCc1cc(NC(=O)[C@@H]2O[C@@](C)(C(F)(F)F)[C@@H](C)[C@H]2c2ccc(F)c(F)c2OCCO)ccn1 [Compound 564, (2R,3S,4S,5R)-3-(3,4-difluoro-2-(2-hydroxyethoxy)phenyl)-N-(2-(methoxymethyl)pyridin-4-yl)-4,5-dimethyl-5-(trifluoromethyl)tetrahydrofuran-2-carboxamide] | < 10 nM
16 | C[C@H]1[C@@H](c2ccc(F)c(F)c2OCCO)[C@H](C(=O)Nc2cnc3nnn(C)c3c2)O[C@@]1(C)C(F)(F)F [Compound 565, (2R,3S,4S,5R)-3-(3,4-difluoro-2-(2-hydroxyethoxy)phenyl)-4,5-dimethyl-N-(1-methyl-1H-[1,2,3]triazolo[4,5-b]pyridin-6-yl)-5-(trifluoromethyl)tetrahydrofuran-2-carboxamide] | 10 to 100 nM
17 | C[C@H]1[C@@H](c2ccc(F)c(F)c2OCCO)[C@H](C(=O)Nc2ccnc(C(F)F)c2)O[C@@]1(C)C(F)(F)F [Compound 566, (2R,3S,4S,5R)-3-(3,4-difluoro-2-(2-hydroxyethoxy)phenyl)-N-(2-(difluoromethyl)pyridin-4-yl)-4,5-dimethyl-5-(trifluoromethyl)tetrahydrofuran-2-carboxamide] | < 10 nM

Continued, values first:

Row | IC50 | SMILES
18 | < 10 nM | COCCOc1cc(NC(=O)[C@@H]2O[C@@](C)(C(F)(F)F)[C@@H](C)[C@H]2c2ccc(F)c(F)c2OCCO)ccn1 [Compound 567, (2R,3S,4S,5R)-3-(3,4-difluoro-2-(2-hydroxyethoxy)phenyl)-N-(2-(2-methoxyethoxy)pyridin-4-yl)-4,5-dimethyl-5-(trifluoromethyl)tetrahydrofuran-2-carboxamide]
19 | 10 to 100 nM | C[C@H]1[C@@H](c2ccc(F)c(F)c2OCCO)[C@H](C(=O)Nc2cnn(C)c(=O)c2)O[C@@]1(C)C(F)(F)F [Compound 568, (2R,3S,4S,5R)-3-(3,4-difluoro-2-(2-hydroxyethoxy)phenyl)-4,5-dimethyl-N-(1-methyl-6-oxo-1,6-dihydropyridazin-4-yl)-5-(trifluoromethyl)tetrahydrofuran-2-carboxamide]
20 | 100 to 1000 nM | Cc1ncc(NC(=O)[C@@H]2O[C@@](C)(C(F)(F)F)[C@@H](C)[C@H]2c2ccc(F)c(F)c2OCCO)cn1 [Compound 569, (2R,3S,4S,5R)-3-(3,4-difluoro-2-(2-hydroxyethoxy)phenyl)-4,5-dimethyl-N-(2-methylpyrimidin-5-yl)-5-(trifluoromethyl)tetrahydrofuran-2-carboxamide]
21 | 10 to 100 nM | COc1cc(NC(=O)[C@@H]2O[C@@](C)(C(F)(F)F)[C@@H](C)[C@H]2c2ccc(F)c(F)c2OCCO)c(F)cn1 [Compound 570, (2R,3S,4S,5R)-3-(3,4-difluoro-2-(2-hydroxyethoxy)phenyl)-N-(5-fluoro-2-methoxypyridin-4-yl)-4,5-dimethyl-5-(trifluoromethyl)tetrahydrofuran-2-carboxamide]
22 | 10 to 100 nM | C[C@H]1[C@@H](c2ccc(F)c(F)c2OCCO)[C@H](C(=O)Nc2ccc(C(F)F)nc2)O[C@@]1(C)C(F)(F)F [Compound 571, (2R,3S,4S,5R)-3-(3,4-difluoro-2-(2-hydroxyethoxy)phenyl)-N-(6-(difluoromethyl)pyridin-3-yl)-4,5-dimethyl-5-(trifluoromethyl)tetrahydrofuran-2-carboxamide]
23 | 10 to 100 nM | C[C@H]1[C@@H](c2ccc(F)c(F)c2OCCO)[C@H](C(=O)Nc2cnsc2)O[C@@]1(C)C(F)(F)F [Compound 572, (2R,3S,4S,5R)-3-(3,4-difluoro-2-(2-hydroxyethoxy)phenyl)-N-(isothiazol-4-yl)-4,5-dimethyl-5-(trifluoromethyl)tetrahydrofuran-2-carboxamide]
24 | 100 to 1000 nM | C[C@H]1[C@@H](c2ccc(F)c(F)c2OCCO)[C@H](C(=O)Nc2cnnn2C)O[C@@]1(C)C(F)(F)F [Compound 573, (2R,3S,4S,5R)-3-(3,4-difluoro-2-(2-hydroxyethoxy)phenyl)-4,5-dimethyl-N-(1-methyl-1H-1,2,3-triazol-5-yl)-5-(trifluoromethyl)tetrahydrofuran-2-carboxamide]
25 | 10 to 100 nM | Cc1nnn2ccc(NC(=O)[C@@H]3O[C@@](C)(C(F)(F)F)[C@@H](C)[C@H]3c3ccc(F)c(F)c3OCCO)cc12 [Compound 574, (2R,3S,4S,5R)-3-(3,4-difluoro-2-(2-hydroxyethoxy)phenyl)-4,5-dimethyl-N-(3-methyl-[1,2,3]triazolo[1,5-a]pyridin-5-yl)-5-(trifluoromethyl)tetrahydrofuran-2-carboxamide]
